Assay results from paper PMC5392334, “Discovery and characterization of a novel irreversible EGFR mutants selective and potent kinase inhibitor CHMFL-EGFR-26 with a distinct binding mode” (Oncotarget, 2017).

What was measured:
TRPM6 = target: T1, TRPM6 (Homo sapiens, UniProt Q9BX84); experiment: KinomeScan; format: binding; conditions: read-out: % control
T1 construct: purchased DiscoveRx KINOMEscan

PCTK1 = target: T2, PCTK1 (Homo sapiens, UniProt Q00536); experiment: KinomeScan; format: binding; conditions: read-out: % control
T2 construct: purchased DiscoveRx KINOMEscan

[1] = target: T3, TYK2(JH2domain-pseudokinase) (Homo sapiens, UniProt P29597); experiment: KinomeScan; format: binding; conditions: read-out: % control
T3 construct: TYK2(JH2domain-pseudokinase); purchased DiscoveRx KINOMEscan

PRKCD = target: T4, PRKCD (Homo sapiens, UniProt Q05655); experiment: KinomeScan; format: binding; conditions: read-out: % control
T4 construct: purchased DiscoveRx KINOMEscan

SGK3 = target: T5, SGK3 (Homo sapiens, UniProt Q96BR1); experiment: KinomeScan; format: binding; conditions: read-out: % control
T5 construct: purchased DiscoveRx KINOMEscan

PCTK2 = target: T6, PCTK2 (Homo sapiens, UniProt Q00537); experiment: KinomeScan; format: binding; conditions: read-out: % control
T6 construct: purchased DiscoveRx KINOMEscan

HIPK3 = target: T7, HIPK3 (Homo sapiens, UniProt Q9H422); experiment: KinomeScan; format: binding; conditions: read-out: % control
T7 construct: purchased DiscoveRx KINOMEscan

BRK = target: T8, BRK (Homo sapiens, UniProt Q13882); experiment: KinomeScan; format: binding; conditions: read-out: % control
T8 construct: purchased DiscoveRx KINOMEscan

[2] = target: T9, RPS6KA5(Kin.Dom.1-N-terminal) (Homo sapiens, UniProt O75582); experiment: KinomeScan; format: binding; conditions: read-out: % control
T9 construct: RPS6KA5(Kin.Dom.1-N-terminal); purchased DiscoveRx KINOMEscan

[3] = target: T10, RSK1(Kin.Dom.1-N-terminal) (Homo sapiens, UniProt Q15418); experiment: KinomeScan; format: binding; conditions: read-out: % control
T10 construct: RSK1(Kin.Dom.1-N-terminal); purchased DiscoveRx KINOMEscan

IRAK1 = target: T11, IRAK1 (Homo sapiens, UniProt P51617); experiment: KinomeScan; format: binding; conditions: read-out: % control
T11 construct: purchased DiscoveRx KINOMEscan

FLT3(ITD,F691L) = experiment: KinomeScan; format: binding; conditions: 1μM
ARK5 = target: T12, ARK5 (Homo sapiens, UniProt O60285); experiment: KinomeScan; format: binding; conditions: read-out: % control
T12 construct: purchased DiscoveRx KINOMEscan

PRKCQ = target: T13, PRKCQ (Homo sapiens, UniProt Q04759); experiment: KinomeScan; format: binding; conditions: read-out: % control
T13 construct: purchased DiscoveRx KINOMEscan

[4] = target: T14, ABL1(F317L)-nonphosphorylated (Homo sapiens, UniProt P00519, F317L); experiment: KinomeScan; format: binding; conditions: read-out: % control
T14 construct: purchased DiscoveRx KINOMEscan

PDGFRB = target: T15, PDGFRB (Homo sapiens, UniProt P09619); experiment: KinomeScan; format: binding; conditions: read-out: % control
T15 construct: purchased DiscoveRx KINOMEscan

FLT3(K663Q) = target: T16, FLT3(K663Q) (Homo sapiens, UniProt P36888, K663Q); experiment: KinomeScan; format: binding; conditions: read-out: % control
T16 construct: purchased DiscoveRx KINOMEscan

[5] = target: T17, ABL1(E255K)-phosphorylated (Homo sapiens, UniProt P00519, E255K); experiment: KinomeScan; format: binding; conditions: read-out: % control
T17 construct: purchased DiscoveRx KINOMEscan

LZK = target: T18, LZK (Homo sapiens, UniProt O43283); experiment: KinomeScan; format: binding; conditions: read-out: % control
T18 construct: purchased DiscoveRx KINOMEscan

DCAMKL2 = target: T19, DCAMKL2 (Homo sapiens, UniProt Q8N568); experiment: KinomeScan; format: binding; conditions: read-out: % control
T19 construct: purchased DiscoveRx KINOMEscan

CIT = target: T20, CIT (Homo sapiens, UniProt O14578); experiment: KinomeScan; format: binding; conditions: read-out: % control
T20 construct: purchased DiscoveRx KINOMEscan

RIOK3 = target: T21, RIOK3 (Homo sapiens, UniProt O14730); experiment: KinomeScan; format: binding; conditions: read-out: % control
T21 construct: purchased DiscoveRx KINOMEscan

RIPK2 = target: T22, RIPK2 (Homo sapiens, UniProt O43353); experiment: KinomeScan; format: binding; conditions: read-out: % control
T22 construct: purchased DiscoveRx KINOMEscan

RIPK1 = target: T23, RIPK1 (Homo sapiens, UniProt Q13546); experiment: KinomeScan; format: binding; conditions: read-out: % control
T23 construct: purchased DiscoveRx KINOMEscan

PAK3 = target: T24, PAK3 (Homo sapiens, UniProt O75914); experiment: KinomeScan; format: binding; conditions: read-out: % control
T24 construct: purchased DiscoveRx KINOMEscan

TGFBR1 = target: T25, TGFBR1 (Homo sapiens, UniProt P36897); experiment: KinomeScan; format: binding; conditions: read-out: % control
T25 construct: purchased DiscoveRx KINOMEscan

CSNK1A1L = target: T26, CSNK1A1L (Homo sapiens, UniProt Q8N752); experiment: KinomeScan; format: binding; conditions: read-out: % control
T26 construct: purchased DiscoveRx KINOMEscan

PIK3CA(E545K) = target: T27, PIK3CA(E545K) (Homo sapiens, UniProt P42336, E545K); experiment: KinomeScan; format: binding; conditions: read-out: % control
T27 construct: purchased DiscoveRx KINOMEscan

[6] = system: BaF3-FL-EGFR-L858R-T790M-C797S; experiment: Anti-proliferation, BaF3 isogenic cell lines (CellTiter-Glo); format: cell-based; conditions: Mus musculus, 72 hours, triplet testing
FRK = target: T28, FRK (Homo sapiens, UniProt P42685); experiment: KinomeScan; format: binding; conditions: read-out: % control
T28 construct: purchased DiscoveRx KINOMEscan

CTK = target: T29, CTK (Homo sapiens, UniProt P42679); experiment: KinomeScan; format: binding; conditions: read-out: % control
T29 construct: purchased DiscoveRx KINOMEscan

SGK = target: T30, SGK (Homo sapiens, UniProt O00141); experiment: KinomeScan; format: binding; conditions: read-out: % control
T30 construct: purchased DiscoveRx KINOMEscan

CDC2L2 = target: T31, CDC2L2 (Homo sapiens, UniProt Q9UQ88); experiment: KinomeScan; format: binding; conditions: read-out: % control
T31 construct: purchased DiscoveRx KINOMEscan

BaF3-FL-EGFR-del19-T790M = experiment: Anti-proliferation, BaF3 isogenic cell lines (CellTiter-Glo); format: cell-based; conditions: Mus musculus, 72 hours, triplet testing
ROS1 = target: T32, ROS1 (Homo sapiens, UniProt P08922); experiment: KinomeScan; format: binding; conditions: read-out: % control
T32 construct: purchased DiscoveRx KINOMEscan

BaF3-IGF1R = experiment: Anti-proliferative effects, IGF1R transformed isogenic BaF3 cells; format: cell-based; conditions: Mus musculus, read-out: IC50 (anti-proliferative; GI50)
TBK1 = target: T33, TBK1 (Homo sapiens, UniProt Q9UHD2); experiment: KinomeScan; format: binding; conditions: read-out: % control
T33 construct: purchased DiscoveRx KINOMEscan

FES = target: T34, FES (Homo sapiens, UniProt P07332); experiment: KinomeScan; format: binding; conditions: read-out: % control
T34 construct: purchased DiscoveRx KINOMEscan

NIM1 = target: T35, NIM1 (Homo sapiens, UniProt Q8IY84); experiment: KinomeScan; format: binding; conditions: read-out: % control
T35 construct: purchased DiscoveRx KINOMEscan

SBK1 = target: T36, SBK1 (Homo sapiens, UniProt Q52WX2); experiment: KinomeScan; format: binding; conditions: read-out: % control
T36 construct: purchased DiscoveRx KINOMEscan

MAP4K2 = target: T37, MAP4K2 (Homo sapiens, UniProt Q12851); experiment: KinomeScan; format: binding; conditions: read-out: % control
T37 construct: purchased DiscoveRx KINOMEscan

ERK1 = target: T38, ERK1 (Homo sapiens, UniProt P27361); experiment: KinomeScan; format: binding; conditions: read-out: % control
T38 construct: purchased DiscoveRx KINOMEscan

T17 sequence (P00519 whole entry E255K): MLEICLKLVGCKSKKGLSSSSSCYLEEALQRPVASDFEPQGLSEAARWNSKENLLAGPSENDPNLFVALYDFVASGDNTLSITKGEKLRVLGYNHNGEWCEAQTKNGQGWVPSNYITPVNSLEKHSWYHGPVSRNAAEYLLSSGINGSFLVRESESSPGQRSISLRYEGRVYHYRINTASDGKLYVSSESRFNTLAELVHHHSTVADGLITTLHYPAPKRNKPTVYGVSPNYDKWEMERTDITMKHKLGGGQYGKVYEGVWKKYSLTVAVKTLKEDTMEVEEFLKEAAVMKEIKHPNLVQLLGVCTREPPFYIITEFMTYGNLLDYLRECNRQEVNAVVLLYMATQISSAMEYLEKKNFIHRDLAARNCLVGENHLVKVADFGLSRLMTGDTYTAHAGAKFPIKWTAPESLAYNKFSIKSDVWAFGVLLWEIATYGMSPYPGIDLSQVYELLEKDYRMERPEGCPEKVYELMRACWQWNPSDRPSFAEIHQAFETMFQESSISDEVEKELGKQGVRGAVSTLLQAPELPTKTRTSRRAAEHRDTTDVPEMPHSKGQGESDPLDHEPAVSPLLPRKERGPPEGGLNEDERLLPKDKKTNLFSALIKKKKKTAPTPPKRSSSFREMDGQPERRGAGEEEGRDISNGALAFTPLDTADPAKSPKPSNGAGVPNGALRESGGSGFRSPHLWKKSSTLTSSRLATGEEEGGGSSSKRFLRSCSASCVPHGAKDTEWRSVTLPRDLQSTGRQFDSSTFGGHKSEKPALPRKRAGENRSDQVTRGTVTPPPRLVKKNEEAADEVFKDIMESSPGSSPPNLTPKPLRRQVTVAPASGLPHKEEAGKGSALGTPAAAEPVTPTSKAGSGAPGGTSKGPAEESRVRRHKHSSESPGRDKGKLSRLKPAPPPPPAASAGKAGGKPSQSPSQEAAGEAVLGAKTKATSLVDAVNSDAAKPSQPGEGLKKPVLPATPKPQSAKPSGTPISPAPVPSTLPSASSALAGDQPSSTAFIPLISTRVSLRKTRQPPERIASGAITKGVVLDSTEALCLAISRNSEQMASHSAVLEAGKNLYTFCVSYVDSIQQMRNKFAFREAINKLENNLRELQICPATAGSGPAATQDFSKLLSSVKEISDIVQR
T22 sequence (O43353 whole entry): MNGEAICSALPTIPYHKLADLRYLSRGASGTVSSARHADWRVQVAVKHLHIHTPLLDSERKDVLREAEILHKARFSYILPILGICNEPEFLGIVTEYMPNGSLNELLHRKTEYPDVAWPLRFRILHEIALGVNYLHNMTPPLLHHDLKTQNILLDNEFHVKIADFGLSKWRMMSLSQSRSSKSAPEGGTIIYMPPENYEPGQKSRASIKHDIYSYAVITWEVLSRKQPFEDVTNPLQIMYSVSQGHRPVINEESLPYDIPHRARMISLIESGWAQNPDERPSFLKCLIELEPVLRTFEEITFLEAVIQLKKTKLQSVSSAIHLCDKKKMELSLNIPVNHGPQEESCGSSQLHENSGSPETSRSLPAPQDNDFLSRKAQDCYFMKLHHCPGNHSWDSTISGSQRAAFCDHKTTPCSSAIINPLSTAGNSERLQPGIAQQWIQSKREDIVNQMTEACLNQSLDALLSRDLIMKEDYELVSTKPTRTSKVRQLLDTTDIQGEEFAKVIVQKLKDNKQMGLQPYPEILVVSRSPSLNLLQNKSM
T10 sequence (Q15418 1-391 limits assumed): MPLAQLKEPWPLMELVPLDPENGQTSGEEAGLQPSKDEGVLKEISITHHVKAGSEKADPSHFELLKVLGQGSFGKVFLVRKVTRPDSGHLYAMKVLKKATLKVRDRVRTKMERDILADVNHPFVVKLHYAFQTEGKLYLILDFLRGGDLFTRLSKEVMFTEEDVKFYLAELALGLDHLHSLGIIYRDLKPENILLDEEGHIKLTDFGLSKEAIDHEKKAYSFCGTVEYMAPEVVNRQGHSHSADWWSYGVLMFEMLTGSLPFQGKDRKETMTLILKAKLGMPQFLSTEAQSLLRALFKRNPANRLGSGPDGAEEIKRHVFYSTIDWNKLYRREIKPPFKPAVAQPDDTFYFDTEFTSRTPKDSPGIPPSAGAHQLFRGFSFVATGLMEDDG
T12 sequence (O60285 whole entry): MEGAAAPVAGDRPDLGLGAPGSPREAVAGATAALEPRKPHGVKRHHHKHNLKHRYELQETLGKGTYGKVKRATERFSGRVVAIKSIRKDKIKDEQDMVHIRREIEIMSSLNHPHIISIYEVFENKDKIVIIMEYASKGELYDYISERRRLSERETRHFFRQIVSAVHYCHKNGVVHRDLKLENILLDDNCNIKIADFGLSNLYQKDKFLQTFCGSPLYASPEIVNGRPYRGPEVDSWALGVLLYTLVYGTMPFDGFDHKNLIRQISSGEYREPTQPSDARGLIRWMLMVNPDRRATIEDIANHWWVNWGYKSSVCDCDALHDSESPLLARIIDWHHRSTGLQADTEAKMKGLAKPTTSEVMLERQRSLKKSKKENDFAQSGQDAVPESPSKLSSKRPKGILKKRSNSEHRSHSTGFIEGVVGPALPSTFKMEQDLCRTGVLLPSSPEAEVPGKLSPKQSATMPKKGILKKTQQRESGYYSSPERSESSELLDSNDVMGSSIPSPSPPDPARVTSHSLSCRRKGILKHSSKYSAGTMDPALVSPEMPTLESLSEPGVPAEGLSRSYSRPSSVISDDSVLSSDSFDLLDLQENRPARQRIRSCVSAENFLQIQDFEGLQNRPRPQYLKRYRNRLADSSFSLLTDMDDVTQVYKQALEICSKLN
T15 sequence (P09619 33-1106): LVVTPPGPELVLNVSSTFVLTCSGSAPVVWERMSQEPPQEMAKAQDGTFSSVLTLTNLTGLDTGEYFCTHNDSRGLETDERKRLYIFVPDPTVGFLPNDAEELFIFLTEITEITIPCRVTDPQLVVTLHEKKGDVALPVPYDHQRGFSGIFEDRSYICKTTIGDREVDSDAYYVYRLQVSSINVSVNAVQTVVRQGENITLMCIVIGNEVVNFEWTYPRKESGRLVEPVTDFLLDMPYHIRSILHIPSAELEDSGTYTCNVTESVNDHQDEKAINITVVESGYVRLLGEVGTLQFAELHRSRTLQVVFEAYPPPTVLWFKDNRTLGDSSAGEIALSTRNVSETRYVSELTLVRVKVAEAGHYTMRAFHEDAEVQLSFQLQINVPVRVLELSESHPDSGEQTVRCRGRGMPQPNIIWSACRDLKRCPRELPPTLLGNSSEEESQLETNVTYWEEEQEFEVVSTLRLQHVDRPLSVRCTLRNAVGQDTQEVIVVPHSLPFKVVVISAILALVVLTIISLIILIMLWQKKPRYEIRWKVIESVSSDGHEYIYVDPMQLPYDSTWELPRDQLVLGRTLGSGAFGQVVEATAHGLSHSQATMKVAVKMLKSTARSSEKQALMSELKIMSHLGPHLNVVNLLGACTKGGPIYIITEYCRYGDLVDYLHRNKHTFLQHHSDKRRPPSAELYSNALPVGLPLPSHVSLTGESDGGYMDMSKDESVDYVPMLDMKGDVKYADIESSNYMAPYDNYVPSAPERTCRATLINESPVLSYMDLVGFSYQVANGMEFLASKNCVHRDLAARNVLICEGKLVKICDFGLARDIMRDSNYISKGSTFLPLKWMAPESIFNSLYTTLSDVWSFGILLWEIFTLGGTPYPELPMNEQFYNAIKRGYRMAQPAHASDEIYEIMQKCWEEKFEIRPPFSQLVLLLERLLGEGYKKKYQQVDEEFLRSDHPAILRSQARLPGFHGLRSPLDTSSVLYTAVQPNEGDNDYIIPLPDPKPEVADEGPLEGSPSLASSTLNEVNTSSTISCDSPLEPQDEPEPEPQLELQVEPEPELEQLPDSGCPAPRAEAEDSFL
T34 sequence (P07332 whole entry): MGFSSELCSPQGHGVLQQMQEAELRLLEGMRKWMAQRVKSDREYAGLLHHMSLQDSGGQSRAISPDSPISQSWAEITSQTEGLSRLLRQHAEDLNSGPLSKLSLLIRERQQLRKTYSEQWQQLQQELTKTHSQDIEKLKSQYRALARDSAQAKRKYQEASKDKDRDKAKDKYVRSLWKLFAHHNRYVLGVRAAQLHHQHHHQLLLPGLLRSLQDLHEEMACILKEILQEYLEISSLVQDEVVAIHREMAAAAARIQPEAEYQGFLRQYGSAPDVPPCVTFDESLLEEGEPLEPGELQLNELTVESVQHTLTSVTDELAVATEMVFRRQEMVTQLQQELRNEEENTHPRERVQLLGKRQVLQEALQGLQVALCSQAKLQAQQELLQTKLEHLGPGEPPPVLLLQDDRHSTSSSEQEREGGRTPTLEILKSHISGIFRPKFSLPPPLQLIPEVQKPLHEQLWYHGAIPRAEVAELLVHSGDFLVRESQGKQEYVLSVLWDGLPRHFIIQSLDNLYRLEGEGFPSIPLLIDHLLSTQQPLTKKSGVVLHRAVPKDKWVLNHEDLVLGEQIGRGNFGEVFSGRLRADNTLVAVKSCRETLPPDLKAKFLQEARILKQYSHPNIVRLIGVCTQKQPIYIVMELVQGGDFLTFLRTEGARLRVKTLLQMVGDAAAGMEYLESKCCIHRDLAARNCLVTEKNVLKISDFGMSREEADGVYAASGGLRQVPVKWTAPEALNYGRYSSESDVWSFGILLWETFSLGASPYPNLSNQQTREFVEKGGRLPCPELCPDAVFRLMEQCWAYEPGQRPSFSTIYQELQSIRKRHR
T8 sequence (Q13882 whole entry): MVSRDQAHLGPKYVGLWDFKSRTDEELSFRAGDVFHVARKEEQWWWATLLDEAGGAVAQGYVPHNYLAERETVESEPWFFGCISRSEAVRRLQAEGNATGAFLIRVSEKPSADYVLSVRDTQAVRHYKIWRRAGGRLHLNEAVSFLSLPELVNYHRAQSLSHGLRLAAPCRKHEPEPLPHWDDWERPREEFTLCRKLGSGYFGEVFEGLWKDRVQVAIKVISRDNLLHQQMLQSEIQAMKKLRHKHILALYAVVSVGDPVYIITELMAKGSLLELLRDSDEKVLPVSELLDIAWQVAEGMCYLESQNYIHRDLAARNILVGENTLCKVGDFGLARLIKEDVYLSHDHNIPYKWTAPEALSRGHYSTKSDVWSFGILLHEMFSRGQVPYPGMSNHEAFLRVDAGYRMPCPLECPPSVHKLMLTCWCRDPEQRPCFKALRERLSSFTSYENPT

SMILES: C=CC(=O)N1CCC[C@@H](n2nc(-c3ccc(OCc4cccc(C)n4)c(Cl)c3)c3c(N)ncnc32)C1 [CHMFL-EGFR-26]
- remaining binding at 1 µM (TRPM6): 100%
- remaining binding at 1 µM (PCTK1): 100%
- remaining binding at 1 µM [1]: 97%
- remaining binding at 1 µM (PRKCD): 100%
- remaining binding at 1 µM (SGK3): 83%
- remaining binding at 1 µM (PCTK2): 89%
- remaining binding at 1 µM (HIPK3): 100%
- remaining binding at 1 µM (BRK): 26%
- remaining binding at 1 µM [2]: 100%
- remaining binding at 1 µM [3]: 97%
- remaining binding at 1 µM (IRAK1): 100%
- % control (FLT3(ITD,F691L)): 100%
- remaining binding at 1 µM (ARK5): 77%
- remaining binding at 1 µM (PRKCQ): 57%
- remaining binding at 1 µM [4]: 100%
- remaining binding at 1 µM (PDGFRB): 94%
- remaining binding at 1 µM (FLT3(K663Q)): 97%
- remaining binding at 1 µM [5]: 98%
- remaining binding at 1 µM (LZK): 86%
- remaining binding at 1 µM (DCAMKL2): 95%
- remaining binding at 1 µM (CIT): 90%
- remaining binding at 1 µM (RIOK3): 82%
- remaining binding at 1 µM (RIPK2): 13%
- remaining binding at 1 µM (RIPK1): 100%
- remaining binding at 1 µM (PAK3): 62%
- remaining binding at 1 µM (TGFBR1): 7%
- remaining binding at 1 µM (CSNK1A1L): 91%
- remaining binding at 1 µM (PIK3CA(E545K)): 81%
- GI50 [6]: 340 nM
- remaining binding at 1 µM (FRK): 96%
- remaining binding at 1 µM (CTK): 95%
- remaining binding at 1 µM (SGK): 100%
- remaining binding at 1 µM (CDC2L2): 97%
- GI50 (BaF3-FL-EGFR-del19-T790M): < 0.3 nM
- remaining binding at 1 µM (ROS1): 89%
- IC50 (BaF3-IGF1R): 3600 nM
- remaining binding at 1 µM (TBK1): 100%
- remaining binding at 1 µM (FES): 97%
- remaining binding at 1 µM (NIM1): 96%
- remaining binding at 1 µM (SBK1): 100%
- remaining binding at 1 µM (MAP4K2): 100%
- remaining binding at 1 µM (ERK1): 91%
